{"source": "patent US8633225B2", "about": "“Piperidinium compounds and cosmetic compositions containing them” (Beiersdorf AG, priority 2006, dated 2014)", "test": "inhibiting or reducing perspiration (antihidrotic effect); statement only, no test described", "details": "qualitative statement", "data": [{"smiles": "CCC(C)C(C(=O)OC1CC[N+](C)(C)CC1)c1ccccc1.[Br-]", "note": "(stereo not shown) [4-{[2-(2-butyl)-2-phenylacetyl)oxy]}-1,1-dimethyl-piperidinium bromide]", "values": [{"measurement": "efficacy in inhibiting perspiration", "value": "very good efficacy in inhibiting perspiration"}]}]}
